In EP0919125A1, “Synergistic antimicrobial composition” (Calgon Corporation, priority 1997, dated 1999):
Where two headings read alike, the source gives them in different places.

Assays:
Type in all cases: cell-based
[1] = tested on: Pseudomonas aeruginosa (ATCC 15442); assay: Microtiter test of biocidal efficacy and synergy (MIC/MBC, Kull K value), Example 1
Procedure: An 8X stock solution of DBDCB was prepared by dissolving about 3.2 grams (g) of 20% active DBDCB in about 4 ml of methanol and diluting the volume up to about 100 ml with deionized water. The DBDCB used in the examples was obtained from Calgon Corporation, Pittsburgh, PA, as Merguard® 1200. A Triclosan 4X stock solution was prepared by dissolving about 0.16g of about 99% active Triclosan in about 5 ml of methanol and diluting the volume up to about 100 ml with deionized water. The Triclosan was obtained from Ciba Geigy as Irgasan® DP 300.
Two microtiter plates were prepared for use in the example, each microtiter plate having 8 rows, A-H, and 12 columns, 1-12. The amount of each biocide in each well of the plates is depicted below.
The amount of biocide in each well of the second microtiter plate of each set was a follows: TABLE 2
(§1) The minimum inhibitory concentration (MIC) for each biocide combination against Ps. aeruginosa was determined. The MIC is the least amount of biocide needed to prevent growth in the well, with growth being defined as turbidity in the medium or a "pellet" of cells which came out of the medium and settled at the bottom of the well.
Additional plates were then subcultured from the MIC plates at 24 hours following biocide addition. Subculturing was done to determine the minimum biocidal concentration (MBC). […]

[2] = tested on: Pseudomonas aeruginosa (ATCC 15442); assay: Microtiter test of biocidal efficacy and synergy (Kull K value), Example II, bacterium
Procedure: as §1
(§2) Additional plates were then subcultured from the MIC plates at 24 hours following biocide addition. Subculturing was done to determine the minimum biocidal concentration (MBC). The MBC is the lowest concentration of biocide that results in no growth after subculturing and subsequent incubation.
(§3) All of the microtiter plates including the MIC plates and the MBC plates were incubated for 24 hours at 37°C. Following the 24 hour incubation period, the presence or absence of growth in each well of the plates was determined. Growth in the microtiter plates was determined with a Dynatech MR-5000 microplate reader, available from Dynatech Laboratories, Chantilly, VA, USA, the use of which will be familiar to one having ordinary skill in the art. The presence or absence of growth in each well, along with the concentration of biocide in each well, was then used to determine the synergistic properties of the biocide combinations. The synergistic properties were evaluated by determining the Kull value, or K value. The method for calculating K value is well known to those skilled in the art. In this example, the K value was determined by the following formula: K=([DBDCB] In Combination)/([DBDCB] Alone)+([Triclosan] In Combination)/([Triclosan] Alone) [formula] where "[DBDCB]
A K value of less than 1 indicates synergy between the two biocides, a K value of greater than 1 indicates antagonism between the two biocides, and a K value equal to 1 indicates an additive effect of the two biocides.
Example I was repeated with the following differences. The DBDCB was tested at the following concentrations: 200, 100, 50, 25, 12.5, 6.25 and 3.125, with concentration given in ppm active. […]

[3] = tested on: Candida albicans (ATCC 10231); assay: Microtiter test of biocidal efficacy and synergy (Kull K value), Example II, yeast; settings: ATCC10231, 120 h
Procedure: as §1, §2
as §3, with “The method for calculating K value is well known to those skilled in the art. In this example, the K value was determined by the following formula: K=([DBDCB] In Combination)/([DBDCB] Alone)+([Triclosan] In Combination)/([Triclosan] Alone) [formula] where "[DBDCB]” left out

| Compound | MIC ([1]; ATCC15442, concentration of DBDCB which, used alone, resulted in inhibition of microbial growth, ppm active, 24 hours at 37°C, read-out: [DBDCB] Alone) | MIC ([2]; DBDCB alone, inhibition of microbial growth, ppm active, 35°C for 24 hours) | MIC ([2]; Pseudomonas aeruginosa, ATCC15442, 24 h, DBDCB alone, inhibition of microbial growth, ppm active, 35°C for 24 hours, read-out: [DBDCB] Alone) | MIC ([3]; DBDCB alone, inhibition of microbial growth, ppm active, 30°C for 5 days, read-out: [DBDCB] Alone) | MIC ([1]; ATCC15442, 24 h, read-out: [Triclosan] Alone) | MIC ([2]; Pseudomonas aeruginosa, ATCC15442, 24 h, read-out: [Triclosan] Alone) | MIC ([3]; read-out: [Triclosan] Alone) |
| --- | --- | --- | --- | --- | --- | --- | --- |
| N#CCCC(Br)(C#N)CBr (stereo not shown) [DBDCB, 1,2-dibromo-2,4-dicyanobutane] | 200 µg/mL | 200 ppm | 100 µg/mL | 100 µg/mL |  |  |  |
| Oc1cc(Cl)ccc1Oc1ccc(Cl)cc1Cl [Triclosan, 2,4,4'-trichloro-2'-hydroxydiphenyl ether] |  |  |  |  | 100 µg/mL | > 100 µg/mL | 12.5 µg/mL |
